From publication PMC5516028, “Molecular tools for GABAA receptors: High affinity ligands for β1-containing subtypes” (Scientific Reports, 2017)
Read-outs that look alike come from different tables or passages of the source.

Columns and labels:
[1] = system: γ2 subunit containing GABAA receptors; assay: Control of γ2 subunit incorporation with diazepam; format: cell-based, rat; conditions: 1 µM
Procedure: For electrophysiological recordings, oocytes were placed on a nylon-grid in a bath of Ca^2+-containing NDE solution medium [96 mM NaCl, 5 mM HEPES-NaOH (pH 7.5), 2 mM KCl, 1 mM MgCl2, 1.8 mM CaCl2]. For current measurements the oocytes were impaled with two microelectrodes (1–3 MΩ resistance) filled with 2 M KCl. […] The EC3–5 was determined at the beginning of each experiment. Drugs were diluted into NDE from DMSO-solutions resulting in a final concentration of 0.1% DMSO perfusing the oocytes. […] Between two applications, oocytes were washed in NDE for up to 15 min to ensure full recovery from desensitization. […] All recordings were performed at room temperature at a holding potential of […] using a Dagan TEV-200A two-electrode voltage clamp (Dagan Corporation, Mineapolis, MN). Data were digitized, recorded and measured using an Axon Digidata- 1550 low-noise data acquisition system (Axon Instruments, Union City, CA).

α1β3 GABAA receptors = target: T1, α1β3 GABAA receptors (Rattus norvegicus, UniProt P62813+P63079); assay: Two electrode voltage clamp in Xenopus laevis oocytes, α1β3; format: cell-based
T1 construct: expressed in transfected cells; host or cells: Xenopus laevis oocytes, mRNA injected
T1 sequence (P62813 28-455): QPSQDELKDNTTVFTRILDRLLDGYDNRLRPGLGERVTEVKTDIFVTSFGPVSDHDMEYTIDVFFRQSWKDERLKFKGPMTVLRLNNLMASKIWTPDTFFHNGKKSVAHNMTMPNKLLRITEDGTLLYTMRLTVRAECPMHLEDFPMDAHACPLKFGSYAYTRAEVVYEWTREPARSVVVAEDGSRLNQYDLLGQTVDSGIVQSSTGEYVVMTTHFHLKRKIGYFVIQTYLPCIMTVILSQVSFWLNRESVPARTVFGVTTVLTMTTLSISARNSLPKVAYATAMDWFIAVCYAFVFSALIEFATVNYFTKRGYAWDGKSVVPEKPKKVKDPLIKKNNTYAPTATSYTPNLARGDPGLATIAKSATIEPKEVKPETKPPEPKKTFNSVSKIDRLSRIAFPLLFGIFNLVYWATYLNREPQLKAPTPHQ
T1 sequence (P63079 26-473): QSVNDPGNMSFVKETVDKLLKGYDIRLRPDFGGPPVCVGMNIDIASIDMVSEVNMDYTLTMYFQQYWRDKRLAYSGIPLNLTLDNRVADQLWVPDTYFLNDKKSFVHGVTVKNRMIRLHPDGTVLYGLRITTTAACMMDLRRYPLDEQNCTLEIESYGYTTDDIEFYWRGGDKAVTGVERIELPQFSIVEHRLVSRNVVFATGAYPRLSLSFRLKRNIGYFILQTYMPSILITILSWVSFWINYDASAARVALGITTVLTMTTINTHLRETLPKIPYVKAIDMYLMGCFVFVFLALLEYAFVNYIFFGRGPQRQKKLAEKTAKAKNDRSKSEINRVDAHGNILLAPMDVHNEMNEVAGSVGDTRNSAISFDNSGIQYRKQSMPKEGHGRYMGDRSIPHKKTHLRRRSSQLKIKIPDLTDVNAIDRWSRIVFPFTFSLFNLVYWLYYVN
Text: (§1) cDNA’s of rat GABAA receptor subunits α1, α4, β1, β2, β3 and γ2S were cloned as described. cDNAs of the rat subunits α2, α3 and α5 were gifts from P. Malherbe, that of α6 and γ1 were gifts of P. Seeburg and that of δ was a gift of C. Czajkowski. The mutants were constructed using the Q5 Site-Directed Mutagenesis Kit (New England Biolabs) following manufacturer’s instruction. We used the wild-type rat β3-pCI vector as template and the primers […] and […] resulting in a substitution of amino acid N41 (AAC) to R (AGG). We used the wild-type rat β1-pCI vector as template and the primers […] and […] resulting in a substitution of amino acid R41 (CGG) to N (AAC). The mutated subunits were confirmed by sequencing.
(§2) In vitro transcription of mRNA was based on the cDNA expression vectors encoding for rat GABAA receptor subunits α1–6, β1-3, γ1,2, δ and the two β mutants (β1R41N and β3N41R)[40]. After linearizing the cDNA vectors with appropriate restriction endonucleases, the cDNA was purified and concentrated with the DNA Clean and Contentrator ^TM Kit (Zymoresearch, Catalog No. D4005). Capped transcripts of the purified cDNA were produced using the mMESSAGE mMACHINE® T7 transcription kit (Ambion, TX, USA) and polyadenylated using the Ambion PolyA tailing kit (Ambion). After transcription and polyadenylation the RNA was purified with the MEGAclear ^TM Kit (Ambion, Catalog No. AM1908). The final RNA concentration was measured on NanoDrop® ND-1000 and finally diluted and stored in diethylpyrocarbonate-treated water at −80 °C. For the microinjection, the RNA of αβ receptor combinations was mixed at 1:1 ratio (which leads to αβ receptors that consist of predominantly 3 beta and 2 alpha subunits[27]), for αkβlγm (k = 1–3, l = 1, 3, m = 1, 2) receptors at 1:1:5 ratio, for αkβ3γ2 (k = 4–6) and αkβlδ (k = 1, 4 and 6, l = 1, 3) receptor combinations at 3:1:5 ratio.
(§3) Mature female Xenopus laevis (Nasco, WI) were anesthetized in a bath of ice-cold 0.17% Tricain (Ethyl-m-aminobenzoate, Sigma, MO) before decapitation in full accordance with all rules of the Austrian animal protection law (see http://www.ris.bka.gv.at/Dokumente/BgblAuth/BGBLA_2012_I_114/BGBLA_2012_I_114.pdf) and the Austrian animal experiment by-laws (see https://www.ris.bka.gv.at/Dokumente/BgblAuth/BGBLA_2012_II_522/BGBLA_2012_II_522.pdf) which implement the European Directive 2010/63/EU (see http://eur-lex.europa.eu/LexUriServ/LexUriServ.do?uri=OJ:L:2010:276:0033:0079:en:PDF) into the Austrian law (all information accessed on July 27, 2016). The frog’s ovaries were transferred to ND96 medium (96 mM NaCl, 2 mM KCl, 1 mM MgCl2, 5 mM HEPES; pH 7.5). Stage 5–6 oocytes with the follicle cell layer around them were roughly dissected with forceps into packages of 10–15 cells and washed in Ca^2+-free ND96 medium. Cells were then digested with collagenase (type IA, Sigma, NO, 1 mg/mL ND96) at 18 °C shaking at 30 rpm for 30–60 minutes and gently defolliculated with the aid of a glass pipette with appropriate tip diameter and a platinum loop. Defolliculated cells were stored at 18 °C for at least 6 hours in ND96 solution containing penicillin G (10000 IU/100 mL) and streptomycin (10 mg/100 mL) in order to preselect and exclude damaged cells from further treatment. Healthy defolliculated oocytes were injected with an aqueous solution of mRNA. A total of 4.5 ng of mRNA per oocyte was injected with a Nanoject II (Drummond). After injection of mRNA, oocytes were incubated at 18 °C (ND96 + antibiotic) for 2–3 days for αβ receptors and for 3–4 days for αβγ or αβδ receptors before recording. When cells were measured at later time points, oocytes were stored at +4 °C instead of 18 °C.
(§4) For electrophysiological recordings, oocytes were placed on a nylon-grid in a bath of Ca^2+-containing NDE solution medium [96 mM NaCl, 5 mM HEPES-NaOH (pH 7.5), 2 mM KCl, 1 mM MgCl2, 1.8 mM CaCl2].

α1β1 GABAA receptors = target: T2, α1β1 GABAA receptors (Rattus norvegicus, UniProt P15431+P62813); assay: Two electrode voltage clamp in Xenopus laevis oocytes, α1β1; format: cell-based; conditions: for EC50: read-out: EC50
T2 construct: expressed in transfected cells; host or cells: Xenopus laevis oocytes, mRNA injected
T2 sequence (P62813 28-455): as the sequence (P62813 28-455) above
T2 sequence (P15431 26-474): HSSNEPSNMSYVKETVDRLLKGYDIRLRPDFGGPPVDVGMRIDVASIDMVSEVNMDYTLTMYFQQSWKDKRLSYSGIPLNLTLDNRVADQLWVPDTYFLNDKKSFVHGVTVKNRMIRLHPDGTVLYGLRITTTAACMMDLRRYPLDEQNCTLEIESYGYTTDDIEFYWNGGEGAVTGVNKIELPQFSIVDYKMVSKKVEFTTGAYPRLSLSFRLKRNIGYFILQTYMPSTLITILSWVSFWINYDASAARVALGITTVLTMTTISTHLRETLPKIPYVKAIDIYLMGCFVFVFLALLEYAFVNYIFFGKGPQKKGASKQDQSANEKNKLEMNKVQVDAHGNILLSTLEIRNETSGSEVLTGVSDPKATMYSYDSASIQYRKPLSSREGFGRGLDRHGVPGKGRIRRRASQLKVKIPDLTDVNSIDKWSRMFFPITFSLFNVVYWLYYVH
Text: as §1, §2, §3, §4

α1β3N41R GABAA receptors = target: T3, α1β3N41R GABAA receptors (Rattus norvegicus, UniProt P62813+P63079, N66R); assay: Two electrode voltage clamp in Xenopus laevis oocytes, mutant α1β3N41R; format: cell-based; conditions: co-applied with GABA EC3-5, read-out: EC50 values for the mutated receptors
T3 construct: expressed in transfected cells; host or cells: Xenopus laevis oocytes, mRNA injected
T3 sequence (P62813 28-455): as the sequence (P62813 28-455) above
T3 sequence (P63079 26-473 N66R): as the sequence (P63079 26-473) above, with N41R counted along it
Text: as §1, §2, §3, §4

α1β1R41N GABAA receptors = target: T4, α1β1R41N GABAA receptors (Rattus norvegicus, UniProt P15431+P62813, R66N); assay: Two electrode voltage clamp in Xenopus laevis oocytes, mutant α1β1R41N; format: cell-based; conditions: for current as % of control at 0.1 µM: 100nM; for current as % of control at 0.1 µM / current as % of control at 0.3 µM / current as % of control at 1 µM / current as % of control at 3 µM / current as % of control at 10 µM / current as % of control at 30 µM: read-out: % of control current at EC3-5; for current as % of control at 0.3 µM: 300nM
T4 construct: expressed in transfected cells; host or cells: Xenopus laevis oocytes, mRNA injected
T4 sequence (P62813 28-455): as the sequence (P62813 28-455) above
T4 sequence (P15431 26-474 R66N): as the sequence (P15431 26-474) above, with R41N counted along it
Text: as §1, §2, §3, §4

α1β2 GABAA receptors = target: T5, α1β2 GABAA receptors (Rattus norvegicus, UniProt P62813+P63138); assay: Two electrode voltage clamp in Xenopus laevis oocytes, α1β2; format: cell-based; conditions: for activity at 0.003 µM: 3 nM
T5 construct: expressed in transfected cells; host or cells: Xenopus laevis oocytes, mRNA injected
T5 sequence (P62813 28-455): as the sequence (P62813 28-455) above
T5 sequence (P63138 25-474 limits assumed): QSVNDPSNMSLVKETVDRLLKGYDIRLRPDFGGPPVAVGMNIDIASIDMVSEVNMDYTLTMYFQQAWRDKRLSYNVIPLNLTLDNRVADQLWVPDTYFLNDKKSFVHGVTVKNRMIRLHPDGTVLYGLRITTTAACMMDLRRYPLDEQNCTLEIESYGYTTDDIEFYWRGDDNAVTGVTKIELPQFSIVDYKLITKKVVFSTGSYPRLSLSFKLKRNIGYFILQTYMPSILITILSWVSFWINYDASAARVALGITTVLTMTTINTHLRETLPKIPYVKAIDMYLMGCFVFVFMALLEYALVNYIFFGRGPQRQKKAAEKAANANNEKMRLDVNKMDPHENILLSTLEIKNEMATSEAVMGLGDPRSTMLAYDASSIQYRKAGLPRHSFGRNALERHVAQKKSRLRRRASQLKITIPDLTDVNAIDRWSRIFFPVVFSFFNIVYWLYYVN
Text: as §1, §2, §3, §4

[2] = α1β3, co-applied with GABA EC3-5, read-out: EC50
[3] = read-out: efficacy, % of control current (GABA EC3-5 = 100%), α1β1
[4] = α1β1, co-applied with GABA EC3-5
[5] = read-out: efficacy, % of control current (GABA EC3-5 = 100%), α1β2

Row | Compound | EC50 (α1β3 GABAA receptors; [2]) [nM] | activity at 30 µM (α1β1 GABAA receptors; [3]) [%] | Hill slope (nH) (α1β1 GABAA receptors; α1β1) | EC50 (α1β1 GABAA receptors; [4]) [nM] | EC50 (α1β3N41R GABAA receptors) [nM] | current as % of control at 0.1 µM (α1β1R41N GABAA receptors) [%] | current as % of control at 0.3 µM (α1β1R41N GABAA receptors) [%] | current as % of control at 1 µM (α1β1R41N GABAA receptors) [%] | current as % of control at 3 µM (α1β1R41N GABAA receptors) [%] | current as % of control at 10 µM (α1β1R41N GABAA receptors) [%] | current as % of control at 30 µM (α1β1R41N GABAA receptors) [%] | EC50 (α1β2 GABAA receptors) [nM] | activity at 0.003 µM (α1β2 GABAA receptors; [5]) [%] | Hill slope (nH) (α1β2 GABAA receptors; α1β2) | other results
1 | CN1C(=O)CN=C(c2ccccc2)c2cc(Cl)ccc21 [diazepam, Diazepam] | – | – | – | – | – | – | – | – | – | – | – | – | – | – | modulation [1]: ~ 200%
2 | COc1ccc2[nH]cc3c(=O)n(-c4ccc(C)cc4)nc-3c2c1 [Compound 5, 8-Methoxy-2-(4-methylphenyl)-2,5-dihydro-3H-pyrazolo[4,3-c]quinolin-3-one] | 3490 | 637 ± 114 | 1.0± 0.5 | 710 | 2470 | 95 ± 20 | 85 ± 25 | 100 ± 30 | 120 ± 30 | 155 ± 40 | 160 ± 40 | 3740 | 100 | 2.8±1.7 | activity at 0.01 µM (α1β3 GABAA receptors; read-out: efficacy, % of control current (GABA EC3-5 = 100%), α1β3, 10 nM): 111 ± 5.7%; activity at 0.03 µM (α1β3 GABAA receptors; read-out: efficacy, % of control current (GABA EC3-5 = 100%), α1β3, 30 nM): 115 ± 8.1%; activity at 0.1 µM (α1β3 GABAA receptors; read-out: efficacy, % of control current (GABA EC3-5 = 100%), α1β3, 100 nM): 126 ± 11.5%; activity at 30 µM (α1β3 GABAA receptors; read-out: efficacy, % of control current (GABA EC3-5 = 100%), α1β3, 30 µM): 623 ± 114%; activity at 0.01 µM (α1β1 GABAA receptors; read-out: efficacy, % of control current (GABA EC3-5 = 100%), α1β1, 10 nM): 123%; activity at 10 µM (α1β1 GABAA receptors; read-out: efficacy, % of control current (GABA EC3-5 = 100%), α1β1, 10 µM): 732 ± 141%; activity at 1 µM (α1β2 GABAA receptors; read-out: efficacy, % of control current (GABA EC3-5 = 100%), α1β2, 1 µM): 179 ± 8.3%; activity at 30 µM (α1β2 GABAA receptors; read-out: efficacy, % of control current (GABA EC3-5 = 100%), α1β2, 30 µM): 651 ± 148%
3 | COc1ccc(-n2nc3c4cc(OC)ccc4[nH]cc-3c2=O)cc1 [Compound 4, 8-Methoxy-2-(4-methoxyphenyl)-2,5-dihydro-3H-pyrazolo[4,3-c]quinolin-3-one] | 3130 | 218 ± 11 | 1.8±0.4 | 210 | 1200 | 80 ± 10 | 85 ± 12 | 110 ± 20 | 150 ± 25 | 180 ± 45 | 140 ± 15 | 2620 | 100 | 1.3±0.5 | activity at 0.3 µM (α1β3 GABAA receptors; read-out: efficacy, % of control current (GABA EC3-5 = 100%), α1β3, 300 nM): 149 ± 15.8%; activity at 1 µM (α1β3 GABAA receptors; read-out: efficacy, % of control current (GABA EC3-5 = 100%), α1β3, 1 µM): 242 ± 16%; activity at 3 µM (α1β3 GABAA receptors; read-out: efficacy, % of control current (GABA EC3-5 = 100%), α1β3, 3 µM): 654 ± 109%; Hill slope (nH) (α1β3 GABAA receptors; α1β3): 1.9±0.5; EC50 (α1β3 GABAA receptors; α1β3, log of EC50, sign as printed, read-out: LogEC50 (converted)): 3090 nM; activity at 0.001 µM (α1β1 GABAA receptors; read-out: efficacy, % of control current (GABA EC3-5 = 100%), α1β1, 1 nM): 100%; activity at 0.003 µM (α1β1 GABAA receptors; read-out: efficacy, % of control current (GABA EC3-5 = 100%), α1β1, 3 nM): 100%; activity at 0.03 µM (α1β1 GABAA receptors; read-out: efficacy, % of control current (GABA EC3-5 = 100%), α1β1, 30 nM): 127 ± 1%; activity at 0.3 µM (α1β1 GABAA receptors; read-out: efficacy, % of control current (GABA EC3-5 = 100%), α1β1, 300 nM): 397 ± 54.9%; EC50 (α1β1 GABAA receptors; α1β1 (α1+/β1− interface)): ~200 nM; EC50 (α1β1R41N GABAA receptors; co-applied with GABA EC3-5): 1200 nM; activity at 0.03 µM (α1β2 GABAA receptors; read-out: efficacy, % of control current (GABA EC3-5 = 100%), α1β2, 30 nM): 100%; activity at 0.3 µM (α1β2 GABAA receptors; read-out: efficacy, % of control current (GABA EC3-5 = 100%), α1β2, 300 nM): 166 ± 7.9%; activity at 3 µM (α1β2 GABAA receptors; read-out: efficacy, % of control current (GABA EC3-5 = 100%), α1β2, 3 µM): 689 ± 82.9%
